{"source": "ChEMBL document CHEMBL1201862", "about": "“PubChem BioAssay data set” (2004)", "key": {"HEK293": {"tested_on": "HEK293", "assay": "viability loss in HEK293T cells – cell-based, ATP luminescence, cherry-pick samples, cytotoxicity control, dose response (AID 687005);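 further: cells exposed to compound for 48 hours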", "type": "functional", "details": "Homo sapiens"}, "[1]": {"assay": "HEK293 Cytotoxicity Assay Measured in Cell-Based System Using Plate Reader - 7071-01_Inhibitor_Dose_CherryPick_Activity_Set2.", "type": "functional"}, "[2]": {"assay": "Trypanosoma cruzi growth suppression in host cells – NIH3T3 host cells, beta-gal luminescence, confirmation (AID 2044);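 further: intracellular parasites grown in NIH/3T3 mouse fibroblasts as host cells; luminescent beta-galactosidase reporter signal from transgenic T. cruzi replicating inside host cells; inhibitors lower the luminescence signal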", "type": "functional, cell-based"}, "[3]": {"assay": "NIH3T3 cell viability loss – ATP luminescence, mouse fibroblasts, counter-screen, dose response (AID 2010);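 further: cells exposed to compound for about 90 hours before reading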", "type": "functional, cell-based"}, "[4]": {"assay": "viability of uninfected HEp-2 cells – cell-based, HTS, cytotoxicity control for RSV inhibitor project, dose response (AID 2410)", "type": "functional", "details": "human respiratory syncytial virus"}, "cells [5]": {"assay": "cells", "type": "functional, cell-based"}, "[6]": {"molecular_target": "Glucose-6-phosphate 1-dehydrogenase (Homo sapiens, UniProt P11413)", "sequence (P11413 whole entry)": "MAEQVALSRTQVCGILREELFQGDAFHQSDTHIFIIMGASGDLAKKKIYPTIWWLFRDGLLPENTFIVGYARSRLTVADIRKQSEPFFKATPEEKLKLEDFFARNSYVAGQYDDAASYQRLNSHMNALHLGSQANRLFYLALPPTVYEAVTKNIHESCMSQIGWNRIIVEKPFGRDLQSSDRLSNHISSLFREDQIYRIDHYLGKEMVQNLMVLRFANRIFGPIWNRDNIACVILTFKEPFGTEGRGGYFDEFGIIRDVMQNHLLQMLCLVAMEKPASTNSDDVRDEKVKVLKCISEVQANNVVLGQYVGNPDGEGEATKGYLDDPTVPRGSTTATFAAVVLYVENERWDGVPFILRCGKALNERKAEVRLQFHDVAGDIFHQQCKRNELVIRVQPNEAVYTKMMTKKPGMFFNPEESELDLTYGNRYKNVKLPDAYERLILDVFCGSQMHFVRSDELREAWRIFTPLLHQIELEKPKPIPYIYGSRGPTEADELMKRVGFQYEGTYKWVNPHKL", "assay": "inhibition of Homo sapiens G6PD, dose series – biochemical, fluorescence, selectivity assay for P. falciparum G6PD inhibitor project, dose response (AID 504792)", "type": "functional"}, "cells [7]": {"assay": "cells", "type": "functional, cell-based", "remark": "listed apart in the source"}, "[8]": {"assay": "Late stage assay provider results from the probe development effort to identify selective inhibitors of heat shock protein 90 (HSP90): Absorbance-based cell proliferation assay in SKBR3 cells.", "type": "functional", "details": "SK-BR-3"}, "[9]": {"assay": "Late stage assay provider results from the probe development effort to identify selective inhibitors of heat shock protein 90 (HSP90): Absorbance-based cell proliferation assay in MCF7 cells.", "type": "functional"}, "[10]": {"molecular_target": "Tyrosyl-DNA phosphodiesterase 2 (Homo sapiens, UniProt O95551)", "sequence (O95551 whole entry)": "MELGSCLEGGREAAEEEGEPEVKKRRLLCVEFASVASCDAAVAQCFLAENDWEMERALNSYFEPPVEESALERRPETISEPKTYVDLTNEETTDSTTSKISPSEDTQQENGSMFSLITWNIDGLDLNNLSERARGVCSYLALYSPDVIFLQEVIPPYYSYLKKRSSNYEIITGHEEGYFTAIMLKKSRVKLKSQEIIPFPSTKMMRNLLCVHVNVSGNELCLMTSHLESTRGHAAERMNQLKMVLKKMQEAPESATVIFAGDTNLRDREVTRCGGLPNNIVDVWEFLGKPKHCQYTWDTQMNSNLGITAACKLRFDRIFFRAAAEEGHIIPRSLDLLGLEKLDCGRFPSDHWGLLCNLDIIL", "assay": "potency against TDP2 phosphodiesterase activity – biochemical, epi absorbance, IC50, dose response (AID 743297)"}, "[11]": {"assay": "CMV-driven luciferase expression suppression in HEK293 – cell-based, luminescence, dry powder, counter-screen for Pax8 inhibitor project, dose response (AID 743020)", "type": "functional"}, "[12]": {"molecular_target": "Potassium channel subfamily K member 3 (Homo sapiens, UniProt O14649)", "sequence (O14649 whole entry)": "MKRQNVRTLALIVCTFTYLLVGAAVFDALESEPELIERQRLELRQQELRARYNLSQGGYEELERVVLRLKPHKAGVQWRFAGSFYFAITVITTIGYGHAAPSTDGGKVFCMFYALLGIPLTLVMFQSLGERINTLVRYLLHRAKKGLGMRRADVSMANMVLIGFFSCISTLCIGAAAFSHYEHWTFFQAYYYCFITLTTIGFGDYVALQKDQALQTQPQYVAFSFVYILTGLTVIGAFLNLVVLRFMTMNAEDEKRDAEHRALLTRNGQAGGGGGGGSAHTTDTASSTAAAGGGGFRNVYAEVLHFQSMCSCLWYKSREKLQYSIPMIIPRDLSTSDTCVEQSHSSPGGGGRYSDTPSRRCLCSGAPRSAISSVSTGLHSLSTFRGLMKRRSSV", "assay": "inhibition of human KCNK3 channel flux – CHO cells, FluxOR thallium flux, SAR follow-up (AID 652212)", "type": "functional"}, "[13]": {"molecular_target": "Potassium channel subfamily K member 9 (Homo sapiens, UniProt Q9NPC2)", "sequence (Q9NPC2 whole entry)": "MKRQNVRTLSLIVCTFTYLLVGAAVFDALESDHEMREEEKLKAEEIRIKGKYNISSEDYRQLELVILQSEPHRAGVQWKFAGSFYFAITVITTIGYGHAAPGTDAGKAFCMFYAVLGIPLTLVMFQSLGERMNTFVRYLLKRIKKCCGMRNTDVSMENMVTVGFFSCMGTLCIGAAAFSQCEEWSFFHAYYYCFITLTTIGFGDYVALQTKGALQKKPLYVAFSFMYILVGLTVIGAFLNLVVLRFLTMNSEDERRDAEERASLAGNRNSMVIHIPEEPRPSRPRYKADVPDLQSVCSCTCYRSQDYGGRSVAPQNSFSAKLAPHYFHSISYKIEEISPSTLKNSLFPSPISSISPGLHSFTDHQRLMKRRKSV", "assay": "KCNK9 flux blockade, concentration-response – cell-based, FluxOR thallium flux, selectivity assay for TASK1 inhibitor project, SAR follow-up (AID 652211);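 further: potency is for inhibitors of the channel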", "type": "functional"}, "[14]": {"molecular_target": "Histone-lysine N-methyltransferase NSD2 (Homo sapiens, UniProt O96028)", "sequence (O96028 whole entry)": "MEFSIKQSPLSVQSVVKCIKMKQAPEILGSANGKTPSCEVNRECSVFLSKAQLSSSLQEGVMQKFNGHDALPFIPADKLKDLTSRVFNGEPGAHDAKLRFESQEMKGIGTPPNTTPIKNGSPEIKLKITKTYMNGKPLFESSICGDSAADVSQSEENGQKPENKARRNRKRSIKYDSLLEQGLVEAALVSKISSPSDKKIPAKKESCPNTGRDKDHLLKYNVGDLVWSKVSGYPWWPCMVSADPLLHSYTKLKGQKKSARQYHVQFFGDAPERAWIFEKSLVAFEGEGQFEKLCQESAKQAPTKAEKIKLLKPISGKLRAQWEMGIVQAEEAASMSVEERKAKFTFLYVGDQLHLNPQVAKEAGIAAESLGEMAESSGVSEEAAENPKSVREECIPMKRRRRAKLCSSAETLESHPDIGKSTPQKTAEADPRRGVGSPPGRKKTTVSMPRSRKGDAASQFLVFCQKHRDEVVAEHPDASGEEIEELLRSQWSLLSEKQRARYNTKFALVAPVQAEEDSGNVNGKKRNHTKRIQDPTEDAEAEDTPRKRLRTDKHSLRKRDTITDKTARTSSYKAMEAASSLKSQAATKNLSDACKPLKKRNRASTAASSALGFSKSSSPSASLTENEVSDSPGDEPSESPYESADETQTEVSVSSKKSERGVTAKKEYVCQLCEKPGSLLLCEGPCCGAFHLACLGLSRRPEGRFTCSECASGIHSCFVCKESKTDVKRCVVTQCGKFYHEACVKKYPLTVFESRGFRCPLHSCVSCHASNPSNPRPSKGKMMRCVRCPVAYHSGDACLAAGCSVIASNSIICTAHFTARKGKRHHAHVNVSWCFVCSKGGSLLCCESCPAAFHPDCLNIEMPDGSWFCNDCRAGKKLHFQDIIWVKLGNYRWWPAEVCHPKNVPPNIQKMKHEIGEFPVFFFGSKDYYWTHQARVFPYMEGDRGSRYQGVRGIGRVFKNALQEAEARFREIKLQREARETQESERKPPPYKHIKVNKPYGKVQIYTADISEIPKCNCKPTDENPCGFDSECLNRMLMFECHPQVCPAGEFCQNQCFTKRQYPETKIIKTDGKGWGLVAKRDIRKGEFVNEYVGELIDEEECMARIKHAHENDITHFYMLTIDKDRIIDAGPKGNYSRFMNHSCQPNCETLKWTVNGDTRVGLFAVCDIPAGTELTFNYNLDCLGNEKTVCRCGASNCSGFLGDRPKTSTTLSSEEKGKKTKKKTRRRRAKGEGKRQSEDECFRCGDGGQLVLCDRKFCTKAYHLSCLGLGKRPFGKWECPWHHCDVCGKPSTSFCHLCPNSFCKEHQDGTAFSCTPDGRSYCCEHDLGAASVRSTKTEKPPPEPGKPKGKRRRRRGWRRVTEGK", "type": "biochemical"}, "[15]": {"molecular_target": "Tyrosine-protein phosphatase non-receptor type 5 (Homo sapiens, UniProt P54829)", "sequence (P54829 whole entry)": "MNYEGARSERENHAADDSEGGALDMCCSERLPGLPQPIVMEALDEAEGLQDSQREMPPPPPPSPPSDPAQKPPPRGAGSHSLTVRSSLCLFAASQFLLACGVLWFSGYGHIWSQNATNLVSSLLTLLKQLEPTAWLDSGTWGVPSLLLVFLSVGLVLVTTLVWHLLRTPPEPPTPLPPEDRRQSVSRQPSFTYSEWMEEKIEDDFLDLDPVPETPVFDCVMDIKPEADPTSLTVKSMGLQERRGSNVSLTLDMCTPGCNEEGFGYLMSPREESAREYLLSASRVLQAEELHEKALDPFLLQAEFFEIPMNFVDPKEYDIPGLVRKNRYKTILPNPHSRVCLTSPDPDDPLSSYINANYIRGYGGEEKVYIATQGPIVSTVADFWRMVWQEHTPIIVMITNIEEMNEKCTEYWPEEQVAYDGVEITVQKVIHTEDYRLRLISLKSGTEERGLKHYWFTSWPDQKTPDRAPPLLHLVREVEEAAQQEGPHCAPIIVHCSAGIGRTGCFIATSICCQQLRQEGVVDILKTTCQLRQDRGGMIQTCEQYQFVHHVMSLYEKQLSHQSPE", "assay": "PTPN5 enzyme inhibition – biochemical, fluorescence intensity, uHTS hits, confirmation (AID 602372)", "type": "functional", "details": "read-out: IC50_Mean"}, "[16]": {"molecular_target": "Dual specificity protein phosphatase 3 (Homo sapiens, UniProt P51452)", "sequence (P51452 whole entry)": "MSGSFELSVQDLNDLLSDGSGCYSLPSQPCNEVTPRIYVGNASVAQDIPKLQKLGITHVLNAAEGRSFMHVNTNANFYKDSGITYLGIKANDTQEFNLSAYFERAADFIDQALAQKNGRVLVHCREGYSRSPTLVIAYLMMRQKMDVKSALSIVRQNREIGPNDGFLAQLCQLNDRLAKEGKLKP", "assay": "VHR phosphatase inhibition, dose response, selectivity assay for STEP inhibitor project, biochemical (AID 602374)", "type": "functional", "details": "read-out: IC50_Mean"}, "[17]": {"molecular_target": "Tyrosine-protein phosphatase non-receptor type 11 (Homo sapiens, UniProt Q06124)", "sequence (Q06124 whole entry)": "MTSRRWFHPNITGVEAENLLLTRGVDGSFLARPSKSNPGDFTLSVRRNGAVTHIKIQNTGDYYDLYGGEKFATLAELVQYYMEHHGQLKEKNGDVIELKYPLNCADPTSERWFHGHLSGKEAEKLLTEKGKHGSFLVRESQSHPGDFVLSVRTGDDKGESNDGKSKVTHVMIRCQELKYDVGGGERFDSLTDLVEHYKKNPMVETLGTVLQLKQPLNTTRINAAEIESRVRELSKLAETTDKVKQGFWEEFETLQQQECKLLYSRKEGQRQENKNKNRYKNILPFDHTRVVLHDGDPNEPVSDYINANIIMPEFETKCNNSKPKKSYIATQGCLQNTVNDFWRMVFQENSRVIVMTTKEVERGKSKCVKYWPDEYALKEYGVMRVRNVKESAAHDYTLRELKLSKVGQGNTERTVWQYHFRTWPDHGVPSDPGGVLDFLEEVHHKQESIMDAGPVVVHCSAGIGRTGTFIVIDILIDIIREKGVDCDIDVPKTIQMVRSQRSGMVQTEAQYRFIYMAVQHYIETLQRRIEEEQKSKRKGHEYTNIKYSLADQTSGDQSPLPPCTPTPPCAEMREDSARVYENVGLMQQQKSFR", "assay": "PTPN11 enzyme inhibitors – biochemical, selectivity assay for STEP inhibitor project, dose response (AID 602367)", "type": "functional", "details": "read-out: IC50_Mean"}, "[18]": {"molecular_target": "T1, Tyrosine-protein phosphatase non-receptor type 22 (Homo sapiens, UniProt Q9Y2R2)", "T1 sequence (Q9Y2R2 whole entry)": "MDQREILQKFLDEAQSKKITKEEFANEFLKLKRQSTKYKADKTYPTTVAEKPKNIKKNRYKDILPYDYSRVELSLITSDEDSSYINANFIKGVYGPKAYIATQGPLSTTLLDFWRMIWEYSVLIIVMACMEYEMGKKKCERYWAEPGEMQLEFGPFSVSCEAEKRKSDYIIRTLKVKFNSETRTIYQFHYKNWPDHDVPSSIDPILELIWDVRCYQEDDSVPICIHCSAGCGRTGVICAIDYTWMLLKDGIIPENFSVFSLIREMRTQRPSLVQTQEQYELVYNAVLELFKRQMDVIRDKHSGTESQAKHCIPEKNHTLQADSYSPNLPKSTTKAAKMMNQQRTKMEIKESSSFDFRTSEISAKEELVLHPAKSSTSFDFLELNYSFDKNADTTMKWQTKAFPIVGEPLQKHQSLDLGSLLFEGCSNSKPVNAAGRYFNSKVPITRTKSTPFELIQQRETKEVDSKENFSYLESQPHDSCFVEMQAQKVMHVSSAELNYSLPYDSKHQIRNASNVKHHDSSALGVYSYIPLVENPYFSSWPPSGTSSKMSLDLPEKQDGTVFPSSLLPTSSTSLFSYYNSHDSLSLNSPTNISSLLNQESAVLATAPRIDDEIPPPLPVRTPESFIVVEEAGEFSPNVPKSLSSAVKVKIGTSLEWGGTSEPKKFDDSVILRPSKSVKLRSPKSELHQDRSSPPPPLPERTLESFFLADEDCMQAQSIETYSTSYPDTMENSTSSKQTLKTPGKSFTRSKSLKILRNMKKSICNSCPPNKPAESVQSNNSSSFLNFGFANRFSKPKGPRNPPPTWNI", "assay": "lymphoid phosphatase LYP inhibitors – biochemical, selectivity assay for STEP inhibitor project, dose response (AID 624241)", "type": "functional"}, "[19]": {"assay": "rescue of ΔF508 CFTR function, airway epithelium – human bronchial epithelial cells, plate reader, cherry-pick, two tests, dose response (AID 743267)", "type": "functional, cell-based"}}, "note": "Active and inactive are the calls of the source.", "data": [{"smiles": "C[C@H]1CN([C@@H](C)CO)S(=O)(=O)c2ccc(Br)cc2O[C@H]1CN(C)S(=O)(=O)c1ccccc1F", "values": [{"measurement": "AC50", "setting": "HEK293", "result": "37.9 µM (active)"}, {"measurement": "AC50", "setting": "[1]", "result": "37.9 µM (active)"}]}, {"smiles": "COc1ccc(Nc2cc(C)c3c(O)cccc3n2)cc1", "values": [{"measurement": "EC50", "setting": "[2]", "result": "1.94 µM (active)"}, {"measurement": "EC50", "setting": "[3]", "result": "> 60 µM (inconclusive)"}, {"measurement": "CC50", "setting": "[4]", "result": "22.6 µM (active)"}, {"measurement": "EC50", "setting": "cells [5]", "result": "> 29.9 µM (inactive)"}, {"measurement": "IC50", "setting": "[6]", "result": "56.3 µM (inactive)"}, {"measurement": "IC50", "setting": "cells [7]", "result": "> 29.9 µM (inactive)"}]}, {"smiles": "COc1ccc(CCN/C=C2/C=C(Br)C(=O)OC2=O)cc1", "values": [{"measurement": "IC50", "setting": "[8]", "result": "5.7 µM (active)"}, {"measurement": "IC50", "setting": "[9]", "result": "1.8 µM (active)"}]}, {"smiles": "Cc1cccc2cc(C=C3C(=O)NC(=O)NC3=O)c(O)nc12", "values": [{"measurement": "IC50", "setting": "[10]", "result": "> 128 µM (inactive)"}]}, {"smiles": "Cc1nn(CCO)c2nc(-c3cccs3)cc(C(F)(F)F)c12", "values": [{"measurement": "CC50", "setting": "[4]", "result": "> 50 µM (active)"}, {"measurement": "AC50", "setting": "[11]", "result": "26.3 µM (active)"}]}, {"smiles": "CCOc1ccccc1NC(=O)c1cccc(NC(=O)c2ccccc2OC(F)(F)F)c1", "values": [{"measurement": "IC50", "setting": "[12]", "result": "0.114 µM (active)"}, {"measurement": "IC50", "setting": "[13]", "result": "0.8 µM (active)"}]}, {"smiles": "CC(=O)c1ccc(S(=O)(=O)Nc2cccc(-n3cnnn3)c2)cc1", "values": [{"measurement": "AC50", "setting": "[14]", "result": "12.9 µM (active)"}, {"measurement": "IC50", "setting": "[15]", "result": "17.4 µM (active)"}, {"measurement": "IC50", "setting": "[16]", "result": "1.51 µM (active)"}, {"measurement": "IC50", "setting": "[17]", "result": "0.526 µM (active)"}, {"measurement": "IC50", "setting": "[18]", "result": "11.4 µM (active)"}]}, {"smiles": "COc1cccc(-c2cc3nc(-c4ccccc4)cc(O)n3n2)c1", "values": [{"measurement": "AC50", "setting": "[19]", "result": "2.35 µM (active)"}]}]}
